Reference: the supplement of paper PMC8671470

tested on: myeloid leukemia patient primary cells Pat.13; assay: cell viability (% survival relative to DMSO control); higher = less cytotoxic; settings: 10000 nM; 72 h
Procedure, shortened: (§1)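 Thawed mononuclear cells from AML or CML patients were purified on Ficoll and cultured for 72 h in RPMI 1640 with 10% FBS, at 10,000 cells/well, on 384-well plates carrying 70 pre-printed compounds at 1–10,000 nM in five tenfold steps, in duplicate. Viability came from CellTiter-Glo, normalised against DMSO and against 10 μM proteasome inhibitor. Any area under the curve given was derived from log-logistic curve fits in the drc and PharmacoGx R packages, and these fits had four parameters.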

| Structure (SMILES) | cell viability [%] |
| --- | --- |
| Cc1nnc(-c2ccc(N3CCC(Oc4ccccc4C(F)(F)F)CC3)nn2)s1 [MF-438] | 97.4 |
| CCCCCCCCCCCCC/C=C/[C@@H](O)[C@H](CO)N(C)C [N,N-Dimethylsphingosine] | 0.263 |
| Nc1nc(O)c2c(CCc3ccc(C(=O)N[C@@H](CCC(=O)O)C(=O)O)cc3)c[nH]c2n1 [Pemetrexed] | 82 |
| C=C1NC(=O)c2cc(CN(C)c3ccc(C(=O)N[C@@H](CCC(=O)O)C(=O)O)s3)ccc2N1 [Raltitrexed] | 95.5 |

tested on: myeloid leukemia patient primary cells Pat.10; assay: as above; settings: 1 nM; 72 h
Procedure, shortened: as §1

| Structure (SMILES) | cell viability [%] |
| --- | --- |
| NS(=O)(=O)c1ccc(S(=O)(=O)Nc2cccc3c(Cl)c[nH]c23)cc1 [Indisulam] | 55.5 |
| Cc1nnc(-c2ccc(N3CCC(Oc4ccccc4C(F)(F)F)CC3)nn2)s1 [MF-438] | 80.2 |
| CCCCCCCCCCCCC/C=C/[C@@H](O)[C@H](CO)N(C)C [N,N-Dimethylsphingosine] | 79.3 |
| Nc1nc(O)c2c(CCc3ccc(C(=O)N[C@@H](CCC(=O)O)C(=O)O)cc3)c[nH]c2n1 [Pemetrexed] | 85.8 |
| C=C1NC(=O)c2cc(CN(C)c3ccc(C(=O)N[C@@H](CCC(=O)O)C(=O)O)s3)ccc2N1 [Raltitrexed] | 54.5 |

same assay, conditions: 10 nM; 72 h

| Structure (SMILES) | cell viability [%] |
| --- | --- |
| NS(=O)(=O)c1ccc(S(=O)(=O)Nc2cccc3c(Cl)c[nH]c23)cc1 [Indisulam] | 64.9 |
| Cc1nnc(-c2ccc(N3CCC(Oc4ccccc4C(F)(F)F)CC3)nn2)s1 [MF-438] | 89.2 |
| CCCCCCCCCCCCC/C=C/[C@@H](O)[C@H](CO)N(C)C [N,N-Dimethylsphingosine] | 74.6 |
| Nc1nc(O)c2c(CCc3ccc(C(=O)N[C@@H](CCC(=O)O)C(=O)O)cc3)c[nH]c2n1 [Pemetrexed] | 86 |
| C=C1NC(=O)c2cc(CN(C)c3ccc(C(=O)N[C@@H](CCC(=O)O)C(=O)O)s3)ccc2N1 [Raltitrexed] | 74.6 |

same assay, conditions: 100 nM; 72 h

| Structure (SMILES) | cell viability [%] |
| --- | --- |
| NS(=O)(=O)c1ccc(S(=O)(=O)Nc2cccc3c(Cl)c[nH]c23)cc1 [Indisulam] | 97 |
| Cc1nnc(-c2ccc(N3CCC(Oc4ccccc4C(F)(F)F)CC3)nn2)s1 [MF-438] | 96.8 |
| CCCCCCCCCCCCC/C=C/[C@@H](O)[C@H](CO)N(C)C [N,N-Dimethylsphingosine] | 39.9 |
| Nc1nc(O)c2c(CCc3ccc(C(=O)N[C@@H](CCC(=O)O)C(=O)O)cc3)c[nH]c2n1 [Pemetrexed] | 51.4 |
| C=C1NC(=O)c2cc(CN(C)c3ccc(C(=O)N[C@@H](CCC(=O)O)C(=O)O)s3)ccc2N1 [Raltitrexed] | 96.5 |

same assay, conditions: 1000 nM; 72 h

| Structure (SMILES) | cell viability [%] |
| --- | --- |
| NS(=O)(=O)c1ccc(S(=O)(=O)Nc2cccc3c(Cl)c[nH]c23)cc1 [Indisulam] | 81.4 |
| Cc1nnc(-c2ccc(N3CCC(Oc4ccccc4C(F)(F)F)CC3)nn2)s1 [MF-438] | 87.5 |
| CCCCCCCCCCCCC/C=C/[C@@H](O)[C@H](CO)N(C)C [N,N-Dimethylsphingosine] | 22.9 |
| Nc1nc(O)c2c(CCc3ccc(C(=O)N[C@@H](CCC(=O)O)C(=O)O)cc3)c[nH]c2n1 [Pemetrexed] | 81.3 |
| C=C1NC(=O)c2cc(CN(C)c3ccc(C(=O)N[C@@H](CCC(=O)O)C(=O)O)s3)ccc2N1 [Raltitrexed] | > 100 |

same assay, conditions: 10000 nM; 72 h

| Structure (SMILES) | cell viability [%] |
| --- | --- |
| NS(=O)(=O)c1ccc(S(=O)(=O)Nc2cccc3c(Cl)c[nH]c23)cc1 [Indisulam] | > 100 |
| Cc1nnc(-c2ccc(N3CCC(Oc4ccccc4C(F)(F)F)CC3)nn2)s1 [MF-438] | > 100 |
| CCCCCCCCCCCCC/C=C/[C@@H](O)[C@H](CO)N(C)C [N,N-Dimethylsphingosine] | < 0 |
| Nc1nc(O)c2c(CCc3ccc(C(=O)N[C@@H](CCC(=O)O)C(=O)O)cc3)c[nH]c2n1 [Pemetrexed] | 59.3 |
| C=C1NC(=O)c2cc(CN(C)c3ccc(C(=O)N[C@@H](CCC(=O)O)C(=O)O)s3)ccc2N1 [Raltitrexed] | 89.9 |

tested on: myeloid leukemia patient primary cells Pat.14; assay: as above; settings: 1 nM; 72 h
Procedure, shortened: as §1

| Structure (SMILES) | cell viability [%] |
| --- | --- |
| NS(=O)(=O)c1ccc(S(=O)(=O)Nc2cccc3c(Cl)c[nH]c23)cc1 [Indisulam] | 75.2 |
| Cc1nnc(-c2ccc(N3CCC(Oc4ccccc4C(F)(F)F)CC3)nn2)s1 [MF-438] | 85 |
| CCCCCCCCCCCCC/C=C/[C@@H](O)[C@H](CO)N(C)C [N,N-Dimethylsphingosine] | 97.9 |
| Nc1nc(O)c2c(CCc3ccc(C(=O)N[C@@H](CCC(=O)O)C(=O)O)cc3)c[nH]c2n1 [Pemetrexed] | 86.9 |
| C=C1NC(=O)c2cc(CN(C)c3ccc(C(=O)N[C@@H](CCC(=O)O)C(=O)O)s3)ccc2N1 [Raltitrexed] | 71 |

same assay, conditions: 10 nM; 72 h

| Structure (SMILES) | cell viability [%] |
| --- | --- |
| NS(=O)(=O)c1ccc(S(=O)(=O)Nc2cccc3c(Cl)c[nH]c23)cc1 [Indisulam] | 84.3 |
| Cc1nnc(-c2ccc(N3CCC(Oc4ccccc4C(F)(F)F)CC3)nn2)s1 [MF-438] | > 100 |
| CCCCCCCCCCCCC/C=C/[C@@H](O)[C@H](CO)N(C)C [N,N-Dimethylsphingosine] | 85 |
| Nc1nc(O)c2c(CCc3ccc(C(=O)N[C@@H](CCC(=O)O)C(=O)O)cc3)c[nH]c2n1 [Pemetrexed] | 82.5 |
| C=C1NC(=O)c2cc(CN(C)c3ccc(C(=O)N[C@@H](CCC(=O)O)C(=O)O)s3)ccc2N1 [Raltitrexed] | 94.5 |

same assay, conditions: 100 nM; 72 h

| Structure (SMILES) | cell viability [%] |
| --- | --- |
| NS(=O)(=O)c1ccc(S(=O)(=O)Nc2cccc3c(Cl)c[nH]c23)cc1 [Indisulam] | 85.7 |
| Cc1nnc(-c2ccc(N3CCC(Oc4ccccc4C(F)(F)F)CC3)nn2)s1 [MF-438] | 87.8 |
| CCCCCCCCCCCCC/C=C/[C@@H](O)[C@H](CO)N(C)C [N,N-Dimethylsphingosine] | 57.8 |
| Nc1nc(O)c2c(CCc3ccc(C(=O)N[C@@H](CCC(=O)O)C(=O)O)cc3)c[nH]c2n1 [Pemetrexed] | 90.2 |
| C=C1NC(=O)c2cc(CN(C)c3ccc(C(=O)N[C@@H](CCC(=O)O)C(=O)O)s3)ccc2N1 [Raltitrexed] | > 100 |

same assay, conditions: 1000 nM; 72 h

| Structure (SMILES) | cell viability [%] |
| --- | --- |
| NS(=O)(=O)c1ccc(S(=O)(=O)Nc2cccc3c(Cl)c[nH]c23)cc1 [Indisulam] | 62.6 |
| Cc1nnc(-c2ccc(N3CCC(Oc4ccccc4C(F)(F)F)CC3)nn2)s1 [MF-438] | 83.5 |
| CCCCCCCCCCCCC/C=C/[C@@H](O)[C@H](CO)N(C)C [N,N-Dimethylsphingosine] | 47.9 |
| Nc1nc(O)c2c(CCc3ccc(C(=O)N[C@@H](CCC(=O)O)C(=O)O)cc3)c[nH]c2n1 [Pemetrexed] | 94.7 |
| C=C1NC(=O)c2cc(CN(C)c3ccc(C(=O)N[C@@H](CCC(=O)O)C(=O)O)s3)ccc2N1 [Raltitrexed] | 90.2 |

same assay, conditions: 10000 nM; 72 h

| Structure (SMILES) | cell viability [%] |
| --- | --- |
| NS(=O)(=O)c1ccc(S(=O)(=O)Nc2cccc3c(Cl)c[nH]c23)cc1 [Indisulam] | 66.6 |
| Cc1nnc(-c2ccc(N3CCC(Oc4ccccc4C(F)(F)F)CC3)nn2)s1 [MF-438] | 92.2 |
| CCCCCCCCCCCCC/C=C/[C@@H](O)[C@H](CO)N(C)C [N,N-Dimethylsphingosine] | 2.81 |
| Nc1nc(O)c2c(CCc3ccc(C(=O)N[C@@H](CCC(=O)O)C(=O)O)cc3)c[nH]c2n1 [Pemetrexed] | 52.5 |
| C=C1NC(=O)c2cc(CN(C)c3ccc(C(=O)N[C@@H](CCC(=O)O)C(=O)O)s3)ccc2N1 [Raltitrexed] | 92.1 |

tested on: myeloid leukemia patient primary cells Pat.9; assay: as above; settings: 1 nM; 72 h
Procedure, shortened: as §1

| Structure (SMILES) | cell viability [%] |
| --- | --- |
| NS(=O)(=O)c1ccc(S(=O)(=O)Nc2cccc3c(Cl)c[nH]c23)cc1 [Indisulam] | 47.8 |
| Cc1nnc(-c2ccc(N3CCC(Oc4ccccc4C(F)(F)F)CC3)nn2)s1 [MF-438] | 56.2 |
| CCCCCCCCCCCCC/C=C/[C@@H](O)[C@H](CO)N(C)C [N,N-Dimethylsphingosine] | 68.4 |
| Nc1nc(O)c2c(CCc3ccc(C(=O)N[C@@H](CCC(=O)O)C(=O)O)cc3)c[nH]c2n1 [Pemetrexed] | 94.3 |
| C=C1NC(=O)c2cc(CN(C)c3ccc(C(=O)N[C@@H](CCC(=O)O)C(=O)O)s3)ccc2N1 [Raltitrexed] | 40.5 |

same assay, conditions: 10 nM; 72 h

| Structure (SMILES) | cell viability [%] |
| --- | --- |
| NS(=O)(=O)c1ccc(S(=O)(=O)Nc2cccc3c(Cl)c[nH]c23)cc1 [Indisulam] | 84 |
